Measurements: US4804668A, “Thiazole derivatives and medical compositions thereof” (Zenyaku Kogyo Kabushiki Kaisha, priority 1985, dated 1989)

What was measured:
[1] = system: isolated left atrium; experiment: Effect on contractile force of isolated left atrium (electrically stimulated, Magnus's bath); set-up: species or system guinea pig (male Hartley, 7 weeks old); conditions: Corresponding Concentration 1 × 10^-4 (mol); isolated guinea pig left atrium, Krebs-Henseleit solution, stimulated at 0.5 cps, 5 msec, 20% above threshold
Protocol: (1) The contractile force of left atrium was tested according to the method described in Basic Lectures of Medicine Development, Volume V, Pharmacological Test Methods, Part 2, page 535 (1971). A 7-weeks-old male Hartley guinea pig (having a bodyweight of about 350 g) was killed by a blow on a head. The chest was opened and the heart was removed and placed in Krebs-Henseleit solution (prepared by adding distilled water to 6.92 g of sodium chloride, 0.35 g of calcium chloride, 0.29 g of magnesium sulfate, 0.16 g of mono-basic potassium phosphate, 2.1 g of sodium bicarbonate and 1.8 g of glucose so that the total amount was 1 l) which sufficiently bubbled with oxygen gas. Threads were tied to each tip of the left atrium. One thread was attached to a fixed pin in Magnus's bath and the other to a force-displacement transducer connected to an electric amplifier and recorder. The atrium was stimulated electrically at 0.5 cps, 5 msec and a voltage of 20% above threshold. The preparation is mounted in Krebs-Henseleit solution through which 95% oxygen gas and 5% carbon dioxide was blown. Then the samples were added.
Further, the above-mentioned tests were carried out by using following apparatuses.
Magnus's bath: supplied by Kabushiki Kaisha Natsume Seisakusho
Recorder: Model WI-680G supplied by Nippon Koden Kabushiki Kaisha
Force displacement transducer: supplied by Nippon Koden Kabushiki Kaisha
Electrical amplifier: Model AP-600G supplied by Nippon Koden Kabushiki Kaisha
Programmed electrosphygmonometer: supplied by Nippon Koden Kabushiki Kaisha

[2] = Acute toxicity (Litchfield-Wilcoxon method), intraperitoneal injection; set-up: species or system mouse (6-weeks-old male ddY); conditions: mouse, in vivo, ip, male ddY mice, 6 weeks old, 19-24 g
Protocol: (2) The acute toxicity of the compound of the formula I was determined according to the Litchfield-Wilcoxon method, J. Pharm. Exp. Ther., 96, 99 (1949) using 6-weeks-old male ddY mice (having a bodyweight of 19-24 g) while administrating the sample compound in intraperitonial injection.

| Structure (SMILES) | Maximum Contractile Force [1] | LD50 [2] |
| --- | --- | --- |
| Cc1nc(C(N)=O)sc1-c1ccncc1 [4-Methyl-5-(4-pyridinyl)-thiazole-2-carboxamide] | 1,325 ± 132 mg | 230 mg/kg |
| CNC(=O)c1nc(C)c(-c2ccncc2)s1 [R1 = --CONHCH3, R2 = --CH3, R3, N,4-Dimethyl-5-(4-pyridinyl)-thiazole-2-carboxamide] | 510 ± 45 mg |  |
| Cc1nc(C#N)sc1-c1ccncc1 [R1 = --CN, R2 = --CH3, R3 = 4-pyridinyl, 2-cyano-4-methyl-5-(4-pyridinyl)-thiazole] | 558 ± 123 mg |  |
| COC(=O)c1nc(C)c(-c2ccncc2)s1 [Methyl 4-methyl-5-(4-pyridinyl)-thiazole-2-carboxylate] | 446 ± 91 mg |  |
